In publication PMC7451048 (Drug metabolism letters, 2019):

Legend:
MRP2 = MRP2 (Homo sapiens, UniProt Q92887); test: Plasma membrane vesicle transport assay, MRP2 vesicles; settings: model substrate at 5 μM (Fig. S5)
BCRP = target: T1, BCRP (Homo sapiens, UniProt Q9UNQ0); test: Plasma membrane vesicle transport assay, BCRP vesicles; format: in vitro ADME; settings: model substrate at 5 μM (Fig. S5)
T1 sequence (Q9UNQ0 1-655): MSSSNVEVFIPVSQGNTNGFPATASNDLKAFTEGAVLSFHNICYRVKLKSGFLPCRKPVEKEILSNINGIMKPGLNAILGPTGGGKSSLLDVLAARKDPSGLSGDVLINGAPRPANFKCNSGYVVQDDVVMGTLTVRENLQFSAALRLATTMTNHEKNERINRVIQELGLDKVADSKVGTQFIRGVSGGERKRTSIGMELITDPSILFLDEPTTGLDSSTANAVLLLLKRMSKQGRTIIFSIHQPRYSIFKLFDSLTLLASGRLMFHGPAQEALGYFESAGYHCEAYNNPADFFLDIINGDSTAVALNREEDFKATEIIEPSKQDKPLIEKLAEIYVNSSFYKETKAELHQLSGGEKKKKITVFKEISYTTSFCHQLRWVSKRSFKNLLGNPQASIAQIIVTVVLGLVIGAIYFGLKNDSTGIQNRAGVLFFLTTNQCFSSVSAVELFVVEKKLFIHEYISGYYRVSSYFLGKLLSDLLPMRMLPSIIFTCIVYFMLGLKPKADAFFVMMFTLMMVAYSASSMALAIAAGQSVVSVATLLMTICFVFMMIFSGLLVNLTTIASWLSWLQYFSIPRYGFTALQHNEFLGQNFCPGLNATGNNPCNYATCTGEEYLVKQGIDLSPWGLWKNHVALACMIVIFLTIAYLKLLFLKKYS

OATP1B1 [1] = target: T2, OATP1B1 (Homo sapiens, UniProt Q9Y6L6); settings: model substrate at 5 μM (Fig. S2)
T2 sequence (Q9Y6L6 1-691): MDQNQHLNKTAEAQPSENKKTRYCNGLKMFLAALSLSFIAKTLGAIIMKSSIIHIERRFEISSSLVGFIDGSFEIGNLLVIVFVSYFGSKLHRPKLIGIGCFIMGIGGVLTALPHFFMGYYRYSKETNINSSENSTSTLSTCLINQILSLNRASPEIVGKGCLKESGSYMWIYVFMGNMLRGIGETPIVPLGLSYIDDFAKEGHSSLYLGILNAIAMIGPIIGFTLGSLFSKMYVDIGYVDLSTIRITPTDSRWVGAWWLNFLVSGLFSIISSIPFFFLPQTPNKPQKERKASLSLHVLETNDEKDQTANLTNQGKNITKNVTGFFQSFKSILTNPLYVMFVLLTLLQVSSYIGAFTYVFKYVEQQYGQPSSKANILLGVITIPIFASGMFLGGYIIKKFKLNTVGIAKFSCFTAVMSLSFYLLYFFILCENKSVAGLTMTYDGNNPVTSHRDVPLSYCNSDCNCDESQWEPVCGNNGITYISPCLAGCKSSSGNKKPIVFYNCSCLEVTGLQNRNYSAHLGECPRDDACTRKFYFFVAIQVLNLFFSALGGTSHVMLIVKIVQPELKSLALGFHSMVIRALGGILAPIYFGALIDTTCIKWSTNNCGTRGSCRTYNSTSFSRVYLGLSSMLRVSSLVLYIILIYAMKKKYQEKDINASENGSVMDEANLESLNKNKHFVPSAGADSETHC

OATP1B3 [2] = target: T3, OATP1B3 (Homo sapiens, UniProt Q9NPD5); settings: model substrate at 5 μM (Fig. S2)
T3 sequence (Q9NPD5 1-702): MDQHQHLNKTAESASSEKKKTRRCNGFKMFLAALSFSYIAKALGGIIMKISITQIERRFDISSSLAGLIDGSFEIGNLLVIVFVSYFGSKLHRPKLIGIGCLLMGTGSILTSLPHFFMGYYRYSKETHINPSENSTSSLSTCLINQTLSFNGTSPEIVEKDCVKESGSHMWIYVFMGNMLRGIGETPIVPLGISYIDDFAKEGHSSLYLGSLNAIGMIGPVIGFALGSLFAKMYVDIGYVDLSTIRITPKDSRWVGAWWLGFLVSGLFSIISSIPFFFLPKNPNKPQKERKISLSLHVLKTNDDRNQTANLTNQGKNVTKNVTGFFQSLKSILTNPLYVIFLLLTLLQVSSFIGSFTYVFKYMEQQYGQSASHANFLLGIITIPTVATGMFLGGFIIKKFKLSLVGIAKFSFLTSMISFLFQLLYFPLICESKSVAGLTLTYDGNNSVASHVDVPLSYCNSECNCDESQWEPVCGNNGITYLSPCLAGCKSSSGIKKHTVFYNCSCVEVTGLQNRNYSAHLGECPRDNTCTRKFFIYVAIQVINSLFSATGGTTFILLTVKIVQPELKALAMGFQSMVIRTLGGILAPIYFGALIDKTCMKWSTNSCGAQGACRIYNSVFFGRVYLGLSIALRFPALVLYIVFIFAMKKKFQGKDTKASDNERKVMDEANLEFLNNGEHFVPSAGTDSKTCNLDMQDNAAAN

OCT1 = target: T4, OCT1 (Homo sapiens, UniProt O15245); test: Cellular uptake assay, HEK/OCT1 vs HEK empty vector cells; settings: model substrate (Fig. S2)
T4 sequence (O15245 1-554): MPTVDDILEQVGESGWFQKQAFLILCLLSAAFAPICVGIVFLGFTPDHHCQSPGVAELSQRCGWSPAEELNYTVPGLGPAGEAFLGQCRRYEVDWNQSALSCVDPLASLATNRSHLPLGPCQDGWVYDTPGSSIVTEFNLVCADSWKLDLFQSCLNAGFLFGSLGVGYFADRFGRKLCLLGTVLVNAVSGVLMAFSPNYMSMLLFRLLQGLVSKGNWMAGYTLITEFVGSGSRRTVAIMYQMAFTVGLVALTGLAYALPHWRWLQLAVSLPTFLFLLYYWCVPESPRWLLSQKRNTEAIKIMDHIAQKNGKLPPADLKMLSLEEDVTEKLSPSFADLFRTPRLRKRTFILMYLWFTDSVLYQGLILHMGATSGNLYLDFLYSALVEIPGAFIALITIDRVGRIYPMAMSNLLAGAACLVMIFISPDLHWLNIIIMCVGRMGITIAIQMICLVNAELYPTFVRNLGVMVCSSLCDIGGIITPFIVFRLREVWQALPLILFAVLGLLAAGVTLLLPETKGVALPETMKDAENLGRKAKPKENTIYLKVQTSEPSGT

OATP4A1 = target: T5, OATP4A1 (Homo sapiens, UniProt Q96BD0); test: Cellular uptake assay, HEK/OATP4A1 vs HEK empty vector cells; settings: model substrate at 5 μM (Fig. S2)
T5 sequence (Q96BD0 1-722): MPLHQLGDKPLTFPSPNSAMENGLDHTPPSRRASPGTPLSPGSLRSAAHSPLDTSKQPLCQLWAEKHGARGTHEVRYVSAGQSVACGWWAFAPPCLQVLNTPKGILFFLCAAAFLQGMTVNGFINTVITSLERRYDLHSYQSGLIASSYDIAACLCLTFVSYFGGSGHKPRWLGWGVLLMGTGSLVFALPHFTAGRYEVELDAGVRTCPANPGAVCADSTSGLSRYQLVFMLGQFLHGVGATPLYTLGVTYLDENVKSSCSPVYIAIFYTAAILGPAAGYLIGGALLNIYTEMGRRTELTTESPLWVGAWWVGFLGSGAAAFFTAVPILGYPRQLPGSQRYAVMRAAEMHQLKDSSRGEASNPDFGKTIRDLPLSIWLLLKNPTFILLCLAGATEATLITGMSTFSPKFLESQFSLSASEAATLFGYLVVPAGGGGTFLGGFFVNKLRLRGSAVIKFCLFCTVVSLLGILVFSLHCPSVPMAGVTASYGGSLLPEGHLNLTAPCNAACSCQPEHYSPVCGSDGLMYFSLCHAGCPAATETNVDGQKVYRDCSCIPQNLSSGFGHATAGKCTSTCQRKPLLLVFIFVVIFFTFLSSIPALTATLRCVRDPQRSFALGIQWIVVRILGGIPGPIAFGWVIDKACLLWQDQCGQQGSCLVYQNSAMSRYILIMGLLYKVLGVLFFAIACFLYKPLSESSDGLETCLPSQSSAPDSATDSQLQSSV

OATP2B1 [3] = target: T6, OATP2B1 (Homo sapiens, UniProt O94956); settings: model substrate at 5 μM (Fig. S2)
T6 sequence (O94956 1-709): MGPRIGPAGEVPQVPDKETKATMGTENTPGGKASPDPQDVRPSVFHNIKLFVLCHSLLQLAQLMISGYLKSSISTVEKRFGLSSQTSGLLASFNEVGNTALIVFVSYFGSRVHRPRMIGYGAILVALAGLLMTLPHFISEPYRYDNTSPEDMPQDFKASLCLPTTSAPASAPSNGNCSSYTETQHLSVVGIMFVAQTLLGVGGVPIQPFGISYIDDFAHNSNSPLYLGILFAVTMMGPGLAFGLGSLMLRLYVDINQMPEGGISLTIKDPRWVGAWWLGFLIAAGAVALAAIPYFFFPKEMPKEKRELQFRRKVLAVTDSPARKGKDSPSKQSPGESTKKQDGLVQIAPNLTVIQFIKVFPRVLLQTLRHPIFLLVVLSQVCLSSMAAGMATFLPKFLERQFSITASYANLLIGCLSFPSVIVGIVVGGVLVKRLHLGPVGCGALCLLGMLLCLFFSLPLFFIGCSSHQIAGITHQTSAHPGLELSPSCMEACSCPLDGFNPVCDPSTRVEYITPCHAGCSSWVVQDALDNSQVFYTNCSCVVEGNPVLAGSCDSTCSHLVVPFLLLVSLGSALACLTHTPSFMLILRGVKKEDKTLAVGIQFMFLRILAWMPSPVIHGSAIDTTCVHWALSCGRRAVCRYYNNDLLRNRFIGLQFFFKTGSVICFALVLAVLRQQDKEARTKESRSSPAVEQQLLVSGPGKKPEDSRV

OAT = settings: read-out: IC50 (OAT inhibitor); reported; ref [44]–[47]; cited from earlier work
[4] = test system: OCT/PMAT/MATE transporters; settings: read-out: IC50 (OCT/PMAT/MATE inhibitor); reported; ref [44]–[47]; cited from earlier work
OATP2B1 [5] = settings: read-out: IC50 for OATP2B1; reported; ref [22], [41]–[43]; cited from earlier work
OATP1B1 [6] = settings: cited from earlier work
OATP1B3 [7] = settings: read-out: IC50 for OATP1B3; reported; ref [22], [41]–[43]; cited from earlier work
[8] = substrate: CC(NC(C)(C)C)C(=O)c1cccc(Cl)c1

Sequence of MRP2 (Q92887 whole entry): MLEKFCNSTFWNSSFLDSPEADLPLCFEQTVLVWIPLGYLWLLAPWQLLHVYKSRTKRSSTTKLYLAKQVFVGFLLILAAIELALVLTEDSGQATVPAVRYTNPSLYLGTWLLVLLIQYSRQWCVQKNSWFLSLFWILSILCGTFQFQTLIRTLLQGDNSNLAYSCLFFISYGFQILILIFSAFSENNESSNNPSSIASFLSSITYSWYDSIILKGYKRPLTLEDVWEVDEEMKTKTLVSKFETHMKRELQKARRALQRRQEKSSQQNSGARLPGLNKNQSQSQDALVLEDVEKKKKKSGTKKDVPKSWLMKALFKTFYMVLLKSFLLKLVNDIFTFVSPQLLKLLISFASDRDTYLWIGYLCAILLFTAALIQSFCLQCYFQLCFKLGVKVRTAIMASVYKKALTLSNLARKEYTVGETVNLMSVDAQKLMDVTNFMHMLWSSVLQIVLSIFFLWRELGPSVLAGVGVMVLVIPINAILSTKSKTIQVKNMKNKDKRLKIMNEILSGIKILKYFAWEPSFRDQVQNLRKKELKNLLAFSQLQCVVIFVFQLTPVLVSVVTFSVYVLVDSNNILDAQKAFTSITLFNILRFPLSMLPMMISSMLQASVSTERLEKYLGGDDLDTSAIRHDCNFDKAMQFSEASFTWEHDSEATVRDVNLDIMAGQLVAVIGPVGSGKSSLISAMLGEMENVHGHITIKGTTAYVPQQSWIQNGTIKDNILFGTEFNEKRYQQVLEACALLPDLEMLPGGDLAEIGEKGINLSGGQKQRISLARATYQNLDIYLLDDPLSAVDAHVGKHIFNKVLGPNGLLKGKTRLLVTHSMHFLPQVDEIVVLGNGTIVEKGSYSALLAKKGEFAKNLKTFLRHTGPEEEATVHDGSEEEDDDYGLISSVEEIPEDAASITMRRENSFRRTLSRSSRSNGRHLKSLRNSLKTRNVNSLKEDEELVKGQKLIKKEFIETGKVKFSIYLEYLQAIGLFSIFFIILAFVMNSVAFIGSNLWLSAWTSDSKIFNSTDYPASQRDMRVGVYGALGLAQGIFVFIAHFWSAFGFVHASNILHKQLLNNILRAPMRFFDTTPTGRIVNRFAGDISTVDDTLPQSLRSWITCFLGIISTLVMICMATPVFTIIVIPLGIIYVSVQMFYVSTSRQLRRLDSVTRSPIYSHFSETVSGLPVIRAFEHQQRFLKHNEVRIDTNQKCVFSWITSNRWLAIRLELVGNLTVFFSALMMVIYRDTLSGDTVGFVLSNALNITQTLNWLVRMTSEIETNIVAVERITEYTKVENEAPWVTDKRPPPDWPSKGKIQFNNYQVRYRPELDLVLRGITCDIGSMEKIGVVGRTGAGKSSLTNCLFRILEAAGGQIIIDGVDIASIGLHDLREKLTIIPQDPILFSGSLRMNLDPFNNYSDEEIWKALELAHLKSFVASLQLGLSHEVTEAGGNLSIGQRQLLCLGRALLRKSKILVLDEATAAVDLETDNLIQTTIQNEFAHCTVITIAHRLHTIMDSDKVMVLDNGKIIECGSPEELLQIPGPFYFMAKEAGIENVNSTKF

With `C[C@]12CC[C@@H]3c4ccc(O)cc4CC[C@H]3[C@@H]1CC[C@@H]2O[C@@H]1O[C@H](C(=O)O)[C@@H](O)[C@H](O)[C@H]1O` [E2-17β-G, estradiol-17β-glucuronide, reference compound] the “Uptake into MRP2 vesicles in the presence of ATP relative to AMP” value (MRP2) was 10–100 times, the “Uptake into BCRP vesicles in the presence of ATP relative to AMP” value (BCRP) was 10–100 times and the “Uptake into CHO/OATP1B1 cells relative to CHO wild-type parent cells” value (OATP1B1 [1]) was “approximately 6 times”. For the same molecule, the “Uptake into CHO/OATP1B3 cells relative to CHO wild-type parent cells” value (OATP1B3 [2]) was ~2 times.

For `C[n+]1ccc(-c2ccccc2)cc1` [[^3H]-MPP^+, reference compound], the “Uptake into OCT1-overexpressing cells relative to vector control cells” value (OCT1) was 15 times.

In the case of `C[C@]12CC[C@@H]3c4ccc(OS(=O)(=O)O)cc4CC[C@H]3[C@@H]1CCC2=O` [E1-3-S, Estrone-3-sulfate, reference compound], the “Uptake into HEK/OATP4A1 cells relative to HEK vector control cells” value (OATP4A1) is reported as 20 times and the “Uptake into HEK/OATP2B1 cells relative to HEK vector control cells” value (OATP2B1 [3]) is reported as 42 times.

For `CCCN(CCC)S(=O)(=O)c1ccc(C(=O)O)cc1` [probenecid], the IC50 (OAT) is listed as 3.1 to 7.4 µM.

For `CCN1/C(=C/c2ccc3ccccc3[n+]2CC)C=Cc2ccccc21` [D-22, Decynium-22], the IC50 [4] is given as 13.8 to 21.9 µM.

For `CO[C@H]1/C=C/O[C@@]2(C)Oc3c(C)c(O)c4c(O)c(c(/C=N/N5CCN(C)CC5)c(O)c4c3C2=O)NC(=O)/C(C)=C\C=C\[C@H](C)[C@H](O)[C@@H](C)[C@@H](O)[C@@H](C)[C@H](OC(C)=O)[C@@H]1C` [RIF, Rifampin], the IC50 (OATP2B1 [5]) is listed as 2.1 µM, the IC50 (OATP1B1 [6]; read-out: IC50 for OATP1B1, reported, ref [22], [41]–[43]) is listed as 1.5 to 3.25 µM and the IC50 (OATP1B3 [7]) is listed as 1.5 to 2.6 µM.

In the case of `COC(=O)[C@H](c1ccccc1Cl)N1CCc2sccc2C1` [Clopidogrel], the “Inhibition of OATP1B1” value (OATP1B1 [6]; ref [26]) is listed as “effective inhibitor”.

B1: OATP1B1 (Homo sapiens) (protein)
chain: MDQNQHLNKTAEAQPSENKKTRYCNGLKMFLAALSLSFIAKTLGAIIMKSSIIHIERRFEISSSLVGFIDGSFEIGNLLVIVFVSYFGSKLHRPKLIGIGCFIMGIGGVLTALPHFFMGYYRYSKETNINSSENSTSTLSTCLINQILSLNRASPEIVGKGCLKESGSYMWIYVFMGNMLRGIGETPIVPLGLSYIDDFAKEGHSSLYLGILNAIAMIGPIIGFTLGSLFSKMYVDIGYVDLSTIRITPTDSRWVGAWWLNFLVSGLFSIISSIPFFFLPQTPNKPQKERKASLSLHVLETNDEKDQTANLTNQGKNITKNVTGFFQSFKSILTNPLYVMFVLLTLLQVSSYIGAFTYVFKYVEQQYGQPSSKANILLGVITIPIFASGMFLGGYIIKKFKLNTVGIAKFSCFTAVMSLSFYLLYFFILCENKSVAGLTMTYDGNNPVTSHRDVPLSYCNSDCNCDESQWEPVCGNNGITYISPCLAGCKSSSGNKKPIVFYNCSCLEVTGLQNRNYSAHLGECPRDDACTRKFYFFVAIQVLNLFFSALGGTSHVMLIVKIVQPELKSLALGFHSMVIRALGGILAPIYFGALIDTTCIKWSTNNCGTRGSCRTYNSTSFSRVYLGLSSMLRVSSLVLYIILIYAMKKKYQEKDINASENGSVMDEANLESLNKNKHFVPSAGADSETHC
With B1 the Km [8] was 31 ± 7 µM and the Vmax [8] was 1407±91 pmol/mg protein/min.
